Test results: patent US6680025B2, “Device and method for photoactivation” (Cerus Corporation, priority 1989, dated 2004)

Assays:
Assay type in all cases: biochemical
[1] = tested on: HIV 115-mer; assay: Post-amplification sterilization, isopsoralen present during amplification (Example 55); conditions: AMDMIP 400 μg/ml, 30 cycles
Text: For the purposes of this determination, the steps of the following experiment include (see FIG. 42): a) preparing template, b) providing template, c) providing isopsoralen, d) providing PCR reagents, e) providing polymerase, f) mixing isopsoralen, PCR reagents, template, and polymerase to initiate PCR, g) cycling to provide PCR product, h) irradiating, i) carrying over of PCR product into new tubes at specific copy numbers, and j) amplifying in a subsequent PCR.
Step a): Template Preparation. HIV 115-mer was used as template.
Step b) Providing Template. For the reaction, template (equivalent to approximately 107 copies) in buffer was provided for the reaction vessel. Step c) Providing Isopsoralen. AMDMIP (400 μg/ml) was provided as the isopsoralen. This is a higher concentration of AMDMIP than used in the previous example.
Step d), e), f) and g). PCR reagents and polymerase were provided, mixed and cycled as described above. This time, however, isopsoralen is part of the pre-amplification mixture.
Step h) Irradiation. Irradiation was performed on the CE-III device for 15 minutes at 25° C.
Step i) Carrying over of PCR product. Aliquots of PCR product were added into six new reaction tubes—two tubes for each dilution. Dilutions to yield 10^7, 10^5 and 10^3 copies were made. […]

[2] = tested on: HIV 115-mer; assay: Crosslinkable Oligonucleotide Probe Analysis (COP) after sterilization
Method: Preparation of Samples: The HIV 115-mer system with primers SK-38/SK-39 was used for the experiment (see FIG. 36, “HIV Oligonucleotide System”). Two types of starting template were used: previously amplified 115-mer or genomic DNA, isolated from an individual known to be infected with HIV (MACS sample). For previously amplified 115-mer between 10^5 and 10^6 copies were used for starting template. For the genomic (MACS) sample, approximately 1 μg (3×10^5 copies) of genomic DNA were used. Two PCR samples were prepared for each type of template then amplification was carried out for either 20 or 30 cycles. One of the two PCR samples contained AMDMIP at 200 μg/ml while the other was AMDMIP free. Following amplification, the AMDMIP containing samples were divided and half were irradiated. Analysis (OH or COP) was then done on the three samples from each set (AMDMIP free, AMDMIP unirradiated, and AMDMIP irradiated) for each cycle number. The AMDMIP free samples served as control, the AMDMIP unirradiated sampes adressed the effect of non-covalently bound AMDMIP on detection, and AMDMIP irradiated samples addressed the effect of covalently bound AMDMIP on detection.
COP and OH assays were performed a follows. 10 μl of the PCR reaction mixture was added to 3.3 μl of “probe mix” [5′-labelled SK-19 (normal or monoadducted) at 10^−8 M containing EDTA and an appropriate salt mixtures], overlaid with 30-40 μl of light mineral oil, then heated to 95-100° C. for 5 minutes. For COP, the hybridization mixture as placed in the PTI device at 56° C. and irradiated for 15 minutes. Following this, loading dyes (containing urea or formamide) were added, the sample heated to 95-100° C. for 5 minutes, quick chilled on wet ice, then loaded on a denaturing PAGE gel followed by electrophoresis under denaturing conditions. For OH reactions, the hybridization mixture was incubated at 56° C. for 30 minutes, loading dyes added, and aliquots loaded directly into a native PAGE gel followed by electrophoresis under native conditions. 1. Samples 1-6 contain previously amplified 115-mer that was re-amplified either 20 (samples 1,3,5) or 30 (Samples 2,4,6) cycles then detected by COP. Samples 1 & 2 are controls (without AMDMIP); samples 3 and 4 are (with AMDMIP and with light) sterilized samples; samples 5 & 6 are (with AMDMIP but without light) controls. The bands corresponding to amplified 115-mer crosslinked to labelled 41-mer probe (SK-19 MA) are the upper bands in FIG. 46. Samples 11-16 are the same series except the MACS sample was used as template.

[3] = tested on: HIV 115-mer; assay: Effect of unirradiated isopsoralen on PCR; conditions: for Counts (CPM) of PCR product: 30 cycles, 0 μg/ml gave 42200
Method: To systematically evaluate the effect of the presence of increasing concentrations of isopsoralen on PCR, AMDMIP (0, 100, 200, 400 μg/ml) was added to 107 copies of HIV 115-mer as template. PCR was then carried out for 30 cycles in the presence of α-^32P-dCTP. The PCR product was run on denaturing polyacrylamide gel and autoradiographed. The bands were thereafter cut and counted.

[4] = tested on: human placental DNA; assay: PCR in presence of AMDMIP and DMSO co-solvent; conditions: AMDMIP 200 μg/ml
Method: In this example, the effect of DMSO on PCR amplification in the presence of high concentrations of sterilizing compound (AMDMIP) was investigated. Samples were prepared for PCR which contained 1 μg of human placental DNA either with or without (unirradiated) AMDMIP (200 μg/ml). The samples were amplified 30 cycles under standard PCR conditions in the presence of 0%, 1%, 5% or 10% DMSO. The reaction mix contained α-^32P-dCTP. Following amplification, the samples were analyzed by PAGE (data not shown).

## Cc1oc2ccc3c(C)cc(=O)oc3c2c1CN [AMDMIP, 4′-Aminomethyl-4,5′-dimethylisopsoralen]
[1]; CE-III 15 minutes at 25° C., 10^7, 10^5, 10^3 copies carried over
  post-amplification sterilization: complete, post-amplification sterilization
[1]
  reamplification of carryover with AMDMIP, not light-treated: show amplification
[2]; sample 3: previously amplified 115-mer, 20 cycles, AMDMIP 200 μg/ml with light
  COP hybrid band CPM: 1944 CPM
[2]; sample 3: previously amplified 115-mer, 20 cycles, AMDMIP with light
  COP hybrid band CPM as % of AMDMIP-free control: 62%
[2]; sample 4: previously amplified 115-mer, 30 cycles, AMDMIP 200 μg/ml with light
  COP hybrid band CPM: 36452 CPM
[2]; sample 4: previously amplified 115-mer, 30 cycles, AMDMIP with light
  COP hybrid band CPM as % of AMDMIP-free control: 83%
[2]; sample 5: previously amplified 115-mer, 20 cycles, AMDMIP 200 μg/ml without light
  COP hybrid band CPM: 4480 CPM
[2]; sample 5: previously amplified 115-mer, 20 cycles, AMDMIP without light
  COP hybrid band CPM as % of AMDMIP-free control: 144%
[2]; sample 6: previously amplified 115-mer, 30 cycles, AMDMIP 200 μg/ml without light
  COP hybrid band CPM: 39596 CPM
[2]; sample 6: previously amplified 115-mer, 30 cycles, AMDMIP without light
  COP hybrid band CPM as % of AMDMIP-free control: 90%
[2]; sample 13: MACS genomic DNA, 20 cycles, AMDMIP 200 μg/ml with light
  COP hybrid band CPM: 460 CPM
[2]; sample 13: MACS genomic DNA, 20 cycles, AMDMIP with light
  COP hybrid band CPM as % of AMDMIP-free control: 52%
[2]; sample 14: MACS genomic DNA, 30 cycles, AMDMIP 200 μg/ml with light
  COP hybrid band CPM: 41777 CPM
[2]; sample 14: MACS genomic DNA, 30 cycles, AMDMIP with light
  COP hybrid band CPM as % of AMDMIP-free control: 78%
[2]; sample 15: MACS genomic DNA, 20 cycles, AMDMIP 200 μg/ml without light
  COP hybrid band CPM: 464 CPM
[2]; sample 15: MACS genomic DNA, 20 cycles, AMDMIP without light
  COP hybrid band CPM as % of AMDMIP-free control: 53%
[2]; sample 16: MACS genomic DNA, 30 cycles, AMDMIP 200 μg/ml without light
  COP hybrid band CPM: 35176 CPM
[2]; sample 16: MACS genomic DNA, 30 cycles, AMDMIP without light
  COP hybrid band CPM as % of AMDMIP-free control: 66%
[3]; HIV 115-mer system
  concentration compatible with the PCR system: up to 400 μg/ml
[3]; unirradiated AMDMIP 100 μg/ml
  Counts (CPM) of PCR product: 77200 CPM
[3]; unirradiated AMDMIP 200 μg/ml
  Counts (CPM) of PCR product: 77500 CPM
[3]; unirradiated AMDMIP 400 μg/ml
  Counts (CPM) of PCR product: 69400 CPM
[4]; 0% DMSO
  product band CPM: 2500 CPM
[4]; 1% DMSO
  product band CPM: 2800 CPM
[4]; 5% DMSO
  product band CPM: 86,000 CPM
[4]; 10% DMSO
  product band CPM: 102,000 CPM
[4]; no DMSO, 30 cycles
  amplification in presence of unirradiated AMDMIP: virtually no detectable amplification product
